The supplement of paper PMC8882468

Assays:
Test in all cases: CTG-3D luminescence at 96 h relative to day-0 seeding control (ratio to day 0); higher = more growth / less cytotoxicity; PDxO 3D drug screen (set 2), 96 h, CTG-3D normalised to day-0 seeding control.
HCI-001 = test system: HCI-001 (organoid from a triple-negative breast cancer xenograft)
HCI-008 = test system: HCI-008 (organoid from a HER2-enriched breast cancer xenograft)
HCI-012 = test system: HCI-012 (organoid from a breast cancer xenograft)
MDA-MB-231 = test system: MDA-MB-231

CC(=O)c1c(C)c2cnc(Nc3ccc(N4CCNCC4)cn3)nc2n(C2CCCC2)c1=O [palbociclib]
CTG-3D luminescence at 96 h
Details | 12.5 pM | 0.00025 µM | 0.005 µM | 0.1 µM | 1 µM | 10 µM | 100 µM | 625 fM
HCI-001, days in culture: 365 | 2.73 | 2.25 | 2.7 | 2.64 | 2.4 | 1.89 | 1.62 | 2.11
HCI-001, days in culture: 397 | 1.74 | 2.12 | 2.31 | 2.47 | 2.46 | 2 | 1.24 | 1.26
HCI-001, days in culture: 401 | 1.54 | 2.13 | 1.58 | 1.85 | 1.33 | 1.58 | 0.962 | 1.63
HCI-008, days in culture: 325 | 1.14 | 1.96 | 2.03 | 2.74 | 3.58 | 2.05 | 0.962 | 1.8
HCI-008, days in culture: 340 | 0.654 | 3.19 | 1.76 | 2.01 | 2.37 | – | 1.18 | 1.13
HCI-008, days in culture: 354 | 1.29 | 1.41 | 2.34 | 1 | 1.11 | 0.979 | 1.21 | 0.693
HCI-008, days in culture: 382 | 1.83 | 1.31 | 1.55 | 1.83 | 1.16 | 1.66 | 0.974 | 1.59
HCI-012, days in culture: 214 | 2.51 | 1.31 | 1.58 | 1.96 | 2.63 | 2.66 | 0.494 | 1.78
HCI-012, days in culture: 243 | 2.23 | 2.46 | 1.58 | 2.71 | 2.27 | 2.37 | 1.29 | 3.76
HCI-012, days in culture: 256 | 1.88 | 2.23 | 1.63 | 3.14 | 2.13 | 1.8 | 0.605 | 2.46
HCI-012, days in culture: 284 | 1.65 | 2.5 | 2.04 | 2.56 | 1.9 | 2.78 | 0.731 | 4.06

MDA-MB-231
Details | CTG-3D luminescence at 96 h
12.5 pM | 5.2
0.00025 µM | 5.24
0.005 µM | 5.27
0.1 µM | 5.18
1 µM | 5.16
10 µM | 4.35
100 µM | 1.02
625 fM | 5.32

CO[C@H]1C[C@@H]2CC[C@@H](C)[C@@](O)(O2)C(=O)C(=O)N2CCCC[C@H]2C(=O)O[C@H]([C@H](C)C[C@@H]2CC[C@@H](O)[C@H](OC)C2)CC(=O)[C@H](C)/C=C(\C)[C@@H](O)[C@@H](OC)C(=O)[C@H](C)C[C@H](C)/C=C/C=C/C=C/1C [rapamycin]
CTG-3D luminescence at 96 h
Details | 12.5 pM | 0.00025 µM | 0.005 µM | 0.1 µM | 1 µM | 10 µM | 100 µM | 625 fM
HCI-001, days in culture: 365 | 2.01 | 1.51 | 1.8 | 1.8 | 1.28 | 1.67 | 0.0179 | 1.4
HCI-001, days in culture: 397 | 1.46 | 1.71 | 1.53 | 1.84 | 1.22 | 1.87 | 0.017 | 1.1
HCI-001, days in culture: 401 | 1.07 | 1.45 | 1.1 | 1.26 | 0.98 | 1.23 | 0.00642 | 0.961
HCI-008, days in culture: 325 | 1.02 | 2.07 | 1.15 | 1.85 | 1.96 | 1.63 | 0.0243 | 1.04
HCI-008, days in culture: 340 | 0.377 | 2.04 | 1.44 | 0.883 | 1.17 | – | 0.0122 | 0.721
HCI-008, days in culture: 354 | 1.17 | 0.924 | 1.28 | 0.845 | 0.613 | 1.04 | 0.0113 | 0.658
HCI-008, days in culture: 382 | 1.67 | 1.28 | 0.869 | 1.12 | 0.658 | 1.06 | 0.0068 | 1.24
HCI-012, days in culture: 214 | 2.2 | 1.93 | 1.66 | 1.12 | 1.43 | 1.48 | 0.0123 | 1.33
HCI-012, days in culture: 243 | 1.69 | 1.66 | 1.47 | 1.74 | 1.31 | 1.75 | 0.0176 | 1.93
HCI-012, days in culture: 256 | 2.19 | 1.95 | 1.54 | 1.81 | 1.91 | 1.19 | 0.0101 | 2.38
HCI-012, days in culture: 284 | 1.84 | 2.05 | 1.19 | 1.44 | 1.29 | 1.76 | 0.0121 | 3.62

MDA-MB-231
Details | CTG-3D luminescence at 96 h
12.5 pM | 4.67
0.00025 µM | 4.8
0.005 µM | 4.88
0.1 µM | 4.66
1 µM | 4.92
10 µM | 4.59
100 µM | 0.0454

CC(C)n1nc(-c2ccc3oc(N)nc3c2)c2c(N)ncnc21 [sapanisertib]
CTG-3D luminescence at 96 h
Details | 12.5 pM | 0.00025 µM | 0.005 µM | 0.1 µM | 1 µM | 10 µM | 100 µM | 625 fM
HCI-001, days in culture: 365 | 2.81 | 2.2 | 2.02 | 1.47 | 0.787 | 0.663 | 0.424 | 1.97
HCI-001, days in culture: 397 | 1.78 | 1.58 | 1.37 | 0.91 | 0.823 | 0.77 | 0.471 | 1.56
HCI-001, days in culture: 401 | 1.48 | 1.97 | 1.53 | 0.815 | 0.544 | 0.657 | 0.396 | 1.63
HCI-008, days in culture: 325 | 1.51 | 1.96 | 1.64 | 0.99 | 0.826 | 0.32 | 0.112 | 1.88
HCI-008, days in culture: 340 | 0.668 | 2.32 | 1.51 | 0.592 | 0.593 | – | 0.0751 | 0.965
HCI-008, days in culture: 354 | 1.18 | 1.2 | 2.84 | 0.615 | 0.502 | 0.229 | 0.122 | 1.31
HCI-008, days in culture: 382 | 1.81 | 1.93 | 1.22 | 0.751 | 0.282 | 0.304 | 0.0604 | 1.7
HCI-012, days in culture: 214 | 3 | 1.84 | 1.05 | 1.27 | 0.635 | 0.331 | 0.0967 | 2.11
HCI-012, days in culture: 243 | 1.95 | 2.36 | 1.77 | 1.16 | 0.476 | 0.522 | 0.156 | 3.05
HCI-012, days in culture: 256 | 2.05 | 2.28 | 2.44 | 1.31 | 0.395 | 0.305 | 0.171 | 2.12
HCI-012, days in culture: 284 | 1.65 | 2.83 | 1.59 | 1.13 | 0.451 | 0.248 | 0.147 | 3.7

MDA-MB-231
Details | CTG-3D luminescence at 96 h
12.5 pM | 5.39
0.00025 µM | 5.2
0.005 µM | 4.98
1 µM | 2.67
10 µM | 1.74
100 µM | 0.758
625 fM | 5.28
